14 compounds from patent US20250154127A1, “BICYCLIC HETEROARYL COMPOUNDS AND USES THEREOF” (ETERN BIOPHARMA (SHANGHAI) CO., LTD., priority 2022, published 2025) can be followed below.

Structures are written as SMILES.

For one experiment, the system named is MSTO-211H cells. Briefly: Proliferation Assay (CellTiter-Glo Luminescent Cell Viability Assay). It counts as cell-based. The note with it: Homo sapiens, 96 hours treatment. As for the experimental part:
Example 5: Proliferation Assay
The effect of compound on YAP driven cancer cells proliferation was assessed in MSTO-211H (ATCC, CRL-2081TM) or NCI-H2052 (ATCC, CRL-5915TM) cells using CellTiter-Glo Luminescent Cell Viability Assay (Promega, G7570).
Briefly, individual cell lines were seeded in 96-well cell culture plate at the density of 1,500 cells per well and cultured in RPMII1640 (Gibco-A10491-01)+10% FBS (Gibco-10099-141C)+1% Penicillin-Streptomycin (5,000 U/mL, Gibco-15070-063) overnight at 37° C. with 5% CO2 before adding the compounds.
Following incubation, serial dilutions of compounds dissolved in DMSO were added to each well (3-fold dilution with 9 concentration points). The final concentration of DMSO present in this assay is below 0.5% and make duplication for each compound treated well.
Following 96 hours treatment, compound mediated cell growth inhibition was measured using CellTiter-Go Luminescent Cell Viability Assay (Promega, G7570). […] CellTiter-Glo in each assay well, mix and incubate at room temperature for 10 min. Read signal using EnVision® Multilabel Plate Reader (Perkin Elmer).
For data analysis, cell proliferation inhibition was calculated using the following formula:
Inhibition %=(1−(Compound treated well CTG signal/DMSO well CTG signal))*100.
IC50 values were calculated using GraphPad Prism software using a four-parameter fit model.
(In ATP-based viability assays light output follows the ATP content of the culture.)

Experiment [1] deals with TEAD1(210-426) binding to YAP(50-100) (Homo sapiens, UniProt P28347). The experiment is described as follows: TR-FRET Assay for TEAD1(210-426) Binding to YAP(50-100). The note with it: His-TEAD 10 nM, YAP-Biotin peptide 50 nM. As for the experimental part:
Compounds were performed 3 fold serial dilution, 12 data points, added to 384 well white plate. The final DMSO concentration is 1%, duplicate for each concentration. Then His-TEAD protein was added to a final concentration of 10 nM, and allowed to preincubate for 30 minutes at room temperature. Assay buffer was added as background control.
YAP-Biotin peptide was added to a final concentration of 50 nM, mixed well, incubate 10 minutes at room temperature. The YAP(50-100) peptide sequence used here is named SEQ ID NO: 2
The Europium-labeled anti-6×His antibody and APC labeled streptavidin were diluted according to the instructions, this detection solution was mixed 1:1 with reaction solution, incubated 1 hour at room temperature.
TR-FRET measurements were made on an Envision (Perkin Elmer), using an excitation wavelength of 320 nm and emissions read at 620 nm and 665 nm. The ratio of the 665 nm to the 620 nm multiply 10000 provides a normalized TR-FRET signal that represents the extent of binding.
Half inhibition concentration IC50 value was calculated by XLfit software.
For orientation: Time-resolved FRET reads energy transfer from a long-lived donor to a nearby acceptor.

TEAD1(210-426) binding to YAP(50-100), sequence (P28347 209-426): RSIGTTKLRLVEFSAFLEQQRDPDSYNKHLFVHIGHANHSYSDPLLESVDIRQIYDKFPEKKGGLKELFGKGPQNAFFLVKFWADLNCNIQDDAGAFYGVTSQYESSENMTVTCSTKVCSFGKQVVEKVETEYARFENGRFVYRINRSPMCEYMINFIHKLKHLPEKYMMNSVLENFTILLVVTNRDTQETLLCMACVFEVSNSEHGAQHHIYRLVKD

For `C[C@@H](c1ccccn1)n1ccc(-c2nn(-c3ccc(OC(F)(F)F)cc3)c3cccnc23)cc1=O` [Compound 1, (S)-1-(1-(pyridin-2-yl)ethyl)-4-(1-(4-(trifluoromethoxy)phenyl)-1H-pyrazolo[4,3-b]pyridin-3-yl)pyridin-2(1H)-one], the figures for the half-inhibitory concentration (IC50) (in the experiment with MSTO-211H cells; in experiment [1]) were ≤ 1000 nM and ≤ 100 nM, respectively.

Regarding `C[C@@H](c1ccccn1)n1ccc(-c2nn(-c3ccc(C(F)(F)F)cc3)c3cccnc23)cc1=O` [Compound 2, (S)-1-(1-(pyridin-2-yl)ethyl)-4-(1-(4-(trifluoromethyl)phenyl)-1H-pyrazolo[4,3-b]pyridin-3-yl)pyridin-2(1H)-one], the IC50 (as a rule, the midpoint of a concentration-inhibition curve) in the experiment on MSTO-211H cells was ≤ 1000 nM; in experiment [1], ≤ 100 nM.

Consider `Cn1ccc(-c2nn(-c3ccc(C(F)(F)F)cc3)c3cccnc23)cc1=O` [Compound 10, 1-methyl-4-(1-(4-(trifluoromethyl)phenyl)-1H-pyrazolo[4,3-b]pyridin-3-yl)pyridin-2(1H)-one], for which, in experiment [1], the IC50 was > 1000 nM.

The compound `C[C@@H](c1ccccn1)n1ccc(-c2nn(-c3ccc(C(F)(F)F)cc3)c3ccc(C(=O)O)cc23)cc1=O` [Compound 21] had an IC50 in experiment [1] of 100 to 1000 nM.

`COC(=O)c1ccc2c(c1)c(-c1ccn([C@@H](C)c3ccccn3)c(=O)c1)nn2-c1ccc(C(F)(F)F)cc1` [Compound 22, methyl (S)-3-(2-oxo-1-(1-(pyridin-2-yl)ethyl)-1,2-dihydropyridin-4-yl)-1-(4-(trifluoromethyl)phenyl)-1H-indazole-5-carboxylate] showed a half-maximal inhibitory concentration (IC50) in experiment [1] of 100 to 1000 nM.

Compound `C[C@@H](c1ccccn1)n1ccc(-c2nn(-c3ccc(C(F)(F)F)cc3)c3ccc(C(N)=O)cc23)cc1=O` [Compound 23] had an IC50 in experiment [1] of 100 to 1000 nM.

`C[C@@H](c1ccccn1)n1ccc(-c2nn(-c3ccc(C(F)(F)F)cc3)c3ccc(C#N)cc23)cc1=O` [Compound 25] gave an IC50 in experiment [1] of 100 to 1000 nM.

`COC(=O)c1ccc2c(-c3ccn([C@@H](C)c4ccccn4)c(=O)c3)nn(-c3ccc(C(F)(F)F)cc3)c2c1` [Compound 26, methyl (S)-3-(2-oxo-1-(1-(pyridin-2-yl)ethyl)-1,2-dihydropyridin-4-yl)-1-(4-(trifluoromethyl)phenyl)-1H-indazole-6-carboxylate] showed an IC50 in experiment [1] of 100 to 1000 nM.

Turning to `O=c1cc(-c2nn(-c3ccc(C(F)(F)F)cc3)c3ccccc23)ccn1C1CCOCC1` [Compound 27], the IC50 in experiment [1] is > 1000 nM.

As to `C[C@@H](c1ccccn1)n1ccc(-n2nc(-c3ccc(C(F)(F)F)cc3)c3cccnc32)cc1=O` [Compound 32, (S)-1-(1-(pyridin-2-yl)ethyl)-4-(3-(4-(trifluoromethyl)phenyl)-1H-pyrazolo[3,4-b]pyridin-1-yl)pyridin-2(1H)-one], the IC50 in experiment [1] was ≤ 100 nM.

With `C[C@@H](c1ccccn1)n1ccc(-c2nc(-c3ccc(C(F)(F)F)cc3)n3ccccc23)cc1=O` [Compound 35, (S)-1-(1-(pyridin-2-yl)ethyl)-4-(3-(4-(trifluoromethyl)phenyl)imidazo[1,5-a]pyridin-1-yl)pyridin-2(1H)-one], the IC50 in experiment [1] was ≤ 100 nM.

As to `Cn1cc(Cn2ccc(-c3nn(-c4ccc(C(F)(F)F)cc4)c4ccccc34)cc2=O)cn1` [Compound 36, 1-((1-methyl-1H-pyrazol-4-yl)methyl)-4-(1-(4-(trifluoromethyl)phenyl)-1H-indazol-3-yl)pyridin-2(1H)-one], the IC50 in experiment [1] lay within 100 to 1000 nM.

With `CN(CCO)c1ccnc(Cn2ccc(-c3nn(-c4ccc(C(F)(F)F)cc4)c4ccccc34)cc2=O)n1` [Compound 79, 1-((4-((2-hydroxyethyl)(methyl)amino)pyrimidin-2-yl)methyl)-4-(1-(4-(trifluoromethyl)phenyl)-1H-indazol-3-yl)pyridin-2(1H)-one], the IC50 in the experiment with MSTO-211H cells was ≤ 1000 nM.

As to `CNc1nccc(Cn2ccc(-c3nn(-c4ccc(C(F)F)cc4)c4ncccc34)cc2=O)n1` [Compound 144, 4-(1-(4-(difluoromethyl)phenyl)-1H-pyrazolo[3,4-b]pyridin-3-yl)-1-((2-(methylamino)pyrimidin-4-yl)methyl) pyridin-2(1H)-one], the IC50 in the experiment with MSTO-211H cells was ≤ 1000 nM.
